pEC50, pIC50: −log10 of the molar value.
What was measured:
HeLa [1] = assay: PI staining for cell cycle distribution; type: cell-based, human; conditions: 24 h read-out, read-out: PI staining for cell cycle distribution EC50 (G2M arrest), HeLa
Protocol: 1-2*10^5 cells are seeded into 24 well tissue culture plates and incubated for 24 h prior to compound addition. Compounds are added for 24 h in a final concentration of 3 μM or 10 μM. Adherent cells are harvested by trypsinization. The cell suspensions are fixed by adding 2 parts ice cold ethanol 100% while vortexing. Then the samples are stored for >2 h at −20° C. Subsequently the cells are washed with PBS once and resuspended in 250 μl PBS containing 50 μg/ml PI (Calbiochem #537059), then the samples are incubated at 37° C. for 30 minutes and subsequently analyzed on a FACSCalibur™ monitoring linear PI fluorescence activity on FL2. The readout allows the detection of a possible direct or indirect influence of the tested compounds on the cell cycle. All active test compounds induce an arrest of the cell population in the G2M phase. This effect has been quantified by running the test at different concentrations. In Table 4 EC50 values are tabulated.

Jurkat [2] = assay: Hoechst 33342 nuclear staining; type: cell-based, human; conditions: 48 h read-out
Protocol: (§1) This assay is performed in 96 well tissue culture plates. Appropriate number of cells (adherent cells: 3-5*10^3, suspension cells: 8-10*10^3) are being seeded out in 80 μl complete medium. Adherent cells are incubated for 24 h for proper spreading out before addition of test compounds while suspension cells are immediately treated with test compounds after seeding out. The test compounds are added in 20 μl complete medium containing max 5% DMSO. The final compound concentrations in the assays are in the range of 0.001 μM-10 μM. […] The assay plates are then further incubated for 30 minutes and subsequently analyzed with a standard inverted fluorescence microscope.
(§2) The readout allows the determination of the fraction of apoptotic nuclei as well as other morphological criteria specific for apoptosis as a function of the treatment. The scores A, B, C and D are explained at the end of the Table.

HeLa [3] = assay: Hoechst 33342 nuclear staining; type: cell-based, human; conditions: 48 h read-out
Protocol: as §1, §2

PBL [4] = assay: Hoechst 33342 nuclear staining; type: cell-based, human; conditions: 48 h read-out
Protocol: as §1, §2

Jily [5] = assay: Hoechst 33342 nuclear staining; type: cell-based; conditions: 48 h read-out
Protocol: as §1, §2

MRC5 [6] = assay: Hoechst 33342 nuclear staining; type: cell-based; conditions: MRC5, 48 h read-out
Protocol: as §1, §2

Jurkat [7] = assay: MTS proliferation assay; type: cell-based, human; conditions: 72 h read-out
Protocol: (§3) The assay is performed in 96 well tissue culture plates. The cells (range: 1.5*10^3-10^4) are seeded out in 80 μl complete medium 24 h prior to compound treatment. The test compounds are added in 20 μl complete medium containing max 5% DMSO. The final compound concentrations in the assays are in the range of 0.001 μM-10 μM. The assay plates are incubated for 72 h at culture conditions. The MTS reagent is prepared according to the manufacturer's protocol (Promega G1111). 20 μl MTS reagent are added to each well, the assay plates are quickly spun and incubated for another 3 h at culture conditions. Subsequently, the plates are shortly shaked and absorption measured with a microplate-reader at 492 nm. The scores A, B, C and D are explained at the end of the Table.

HT1080 = assay: MTS proliferation assay; type: cell-based, human; conditions: HT1080, 72 h read-out
Protocol: as §3

HeLa [8] = assay: MTS proliferation assay; type: cell-based, human; conditions: 72 h read-out
Protocol: as §3

Jurkat [9] = assay: Mitochondrial membrane potential (JC-1); type: cell-based, human; conditions: 48 h read-out
Protocol: as §1, with “20 μal” for “20 μl”, “DMSO.” for “DMSO. The final compound concentrations in the assays are in the range of 0.001 μM-10 μM.”, “fluorescence microscope by using the FITC and TRITC filters.” for “fluorescence microscope.”
(§4) The scores A, B, C and D are explained at the end of the Table.

MCF7 = assay: Mitochondrial membrane potential (JC-1); type: cell-based, human; conditions: MCF7, 48 h read-out
Protocol: as §1, with “20 μal” for “20 μl”, “DMSO.” for “DMSO. The final compound concentrations in the assays are in the range of 0.001 μM-10 μM.”, “fluorescence microscope by using the FITC and TRITC filters.” for “fluorescence microscope.”
as §4

HeLa [10] = assay: Mitochondrial membrane potential (JC-1); type: cell-based, human; conditions: 48 h read-out
Protocol: as §1, with “20 μal” for “20 μl”, “DMSO.” for “DMSO. The final compound concentrations in the assays are in the range of 0.001 μM-10 μM.”, “fluorescence microscope by using the FITC and TRITC filters.” for “fluorescence microscope.”
as §4

PBL [11] = assay: Mitochondrial membrane potential (JC-1); type: cell-based, human; conditions: 48 h read-out
Protocol: as §1, with “20 μal” for “20 μl”, “DMSO.” for “DMSO. The final compound concentrations in the assays are in the range of 0.001 μM-10 μM.”, “fluorescence microscope by using the FITC and TRITC filters.” for “fluorescence microscope.”
as §4

Jily [12] = assay: MTS proliferation assay; type: cell-based; conditions: 72 h read-out
Protocol: as §3

MRC5 [13] = assay: MTS proliferation assay; type: cell-based; conditions: MRC5, 72 h read-out
Protocol: as §3

DOHH2 = assay: Mitochondrial membrane potential (JC-1); type: cell-based; conditions: DOHH2, 48 h read-out
Protocol: as §1, with “20 μal” for “20 μl”, “DMSO.” for “DMSO. The final compound concentrations in the assays are in the range of 0.001 μM-10 μM.”, “fluorescence microscope by using the FITC and TRITC filters.” for “fluorescence microscope.”
as §4

| Compound | pEC50 (HeLa [1]) | pEC50 (Jurkat [2]) | pEC50 (HeLa [3]) | pEC50 (PBL [4]) | pEC50 (Jily [5]) | pEC50 (MRC5 [6]) | pIC50 (Jurkat [7]) | pIC50 (HT1080) | pIC50 (HeLa [8]) | pEC50 (Jurkat [9]) | pEC50 (MCF7) | pEC50 (HeLa [10]) | pEC50 (PBL [11]) | pIC50 (Jily [12]) | pIC50 (MRC5 [13]) | pEC50 (DOHH2) | also measured |
| --- | --- | --- | --- | --- | --- | --- | --- | --- | --- | --- | --- | --- | --- | --- | --- | --- | --- |
| COc1ccc(Nc2cncc(-c3cccc(NS(=O)(=O)CCCCl)c3)c2)cc1 [Example 7] | 6.00 to 7.00 | 7.00 to 8.00 | 7.00 to 8.00 | < 6.00 | 7.00 to 8.00 | 7.00 to 8.00 | 7.00 to 8.00 | 6.00 to 7.00 | 6.00 to 7.00 | 7.00 to 8.00 | < 6.00 | 6.00 to 7.00 | < 6.00 | 7.00 to 8.00 | 6.00 to 7.00 | 7.00 to 8.00 |  |
| COc1ccc(Nc2cncc(-c3cccc(NC(=O)c4cccnc4Cl)c3)c2)cc1 [Example 11] | > 8.00 | 7.00 to 8.00 | 7.00 to 8.00 | < 6.00 | 7.00 to 8.00 | 7.00 to 8.00 | 7.00 to 8.00 | 7.00 to 8.00 | 7.00 to 8.00 | 7.00 to 8.00 | < 6.00 | 7.00 to 8.00 | < 6.00 | 7.00 to 8.00 | 7.00 to 8.00 | 7.00 to 8.00 |  |
| COc1ccc(Nc2cncc(-c3cccc(NC(=O)c4ccncc4)c3)c2)cc1 [Example 16] | 7.00 to 8.00 | > 8.00 | 7.00 to 8.00 | < 6.00 | > 8.00 | > 8.00 |  | > 8.00 | 7.00 to 8.00 | > 8.00 | 6.00 to 7.00 | 7.00 to 8.00 | < 6.00 |  | > 8.00 | > 8.00 |  |
| CCC(=O)Nc1cccc(-c2cncc(Nc3ccc(OC)cc3)c2)c1 [Example 21] |  | 6.00 to 7.00 | 6.00 to 7.00 | < 6.00 | 6.00 to 7.00 | < 6.00 | 7.00 to 8.00 | 6.00 to 7.00 | 6.00 to 7.00 | 6.00 to 7.00 | < 6.00 | 6.00 to 7.00 | < 6.00 | 6.00 to 7.00 | 6.00 to 7.00 | 6.00 to 7.00 |  |
| COc1ccc(Nc2cncc(-c3cccc(NC(=O)c4cnccn4)c3)c2)cc1 [Example 12] |  | 7.00 to 8.00 | 7.00 to 8.00 | < 6.00 | 7.00 to 8.00 | 6.00 to 7.00 | > 8.00 | 7.00 to 8.00 | 7.00 to 8.00 | 7.00 to 8.00 | 6.00 to 7.00 | 6.00 to 7.00 | < 6.00 | 7.00 to 8.00 | 6.00 to 7.00 | 7.00 to 8.00 |  |
| COc1ccc(Nc2cncc(-c3cccc(Nc4ccccn4)c3)c2)cc1 [Example 3, 5-(p-Methoxyphenylamino)-3-(m-[2-pyridylamino]phenyl)pyridine] |  |  |  |  | 7.00 to 8.00 |  |  |  |  |  |  |  |  | 7.00 to 8.00 |  |  | pEC50 (Jurkat [2]; Homo sapiens): 7.00 to 8.00; pEC50 (HeLa [3]; Homo sapiens): 6.00 to 7.00; pEC50 (PBL [4]; Homo sapiens): < 6.00; pEC50 (MRC5 [6]; Homo sapiens): 6.00 to 7.00; pIC50 (Jurkat [7]; Homo sapiens): 7.00 to 8.00; pIC50 (HT1080; Homo sapiens, HT-1080): 7.00 to 8.00; pIC50 (HeLa [8]; Homo sapiens): 6.00 to 7.00; pEC50 (Jurkat [9]; Homo sapiens): 7.00 to 8.00; pEC50 (MCF7; Homo sapiens): 6.00 to 7.00; pEC50 (HeLa [10]; Homo sapiens): 6.00 to 7.00; pEC50 (PBL [11]; Homo sapiens): < 6.00; pIC50 (MRC5 [13]; Homo sapiens): 6.00 to 7.00; melting point: 161 to 165 °C; pEC50 (DOHH2; Homo sapiens, DOHH-2): 7.00 to 8.00 |
| COc1ccc(Nc2cncc(-c3cccc(NC(=O)c4cccc(OC)c4)c3)c2)cc1 [Example 25] |  | 6.00 to 7.00 | < 6.00 | < 6.00 | < 6.00 | < 6.00 | 6.00 to 7.00 | < 6.00 | < 6.00 | 6.00 to 7.00 | < 6.00 | < 6.00 | < 6.00 | 6.00 to 7.00 | < 6.00 | < 6.00 |  |
| COc1ccc(Nc2cncc(-c3cccc(NC(C)=O)c3)c2)cc1 [Example 8] |  | 6.00 to 7.00 | 6.00 to 7.00 | < 6.00 | 6.00 to 7.00 | 6.00 to 7.00 | 6.00 to 7.00 | 6.00 to 7.00 | 6.00 to 7.00 | 6.00 to 7.00 | < 6.00 | 6.00 to 7.00 | < 6.00 | 6.00 to 7.00 | < 6.00 | 6.00 to 7.00 |  |
| COc1ccc(Nc2cncc(-c3cccc(NS(=O)(=O)c4ccccc4)c3)c2)cc1 [Example 23] |  | 6.00 to 7.00 | 6.00 to 7.00 | < 6.00 | 6.00 to 7.00 | < 6.00 | 6.00 to 7.00 | 6.00 to 7.00 | 6.00 to 7.00 | 6.00 to 7.00 | 6.00 to 7.00 | 6.00 to 7.00 | < 6.00 | 6.00 to 7.00 | 6.00 to 7.00 | 6.00 to 7.00 |  |
